Publication PMC8052528 (Protein & Cell, 2021)

Legend:
[1] = tested on: SARS-CoV-2; format: cell-based
[2] = Phase 1 and Phase 2 clinical trials; ref Satoh et al., 2009; Kelly et al., 2013; cited from earlier work

With `Cc1coc2c1C(=O)C(=O)c1c-2ccc2c(C)cccc12` [tanshinone I] the “intracellular NP level versus control group (10 μmol/L chloroquine)” value [1] was “comparable NP levels with the control group”.

For `C[C@H]1COC2=C1C(=O)C(=O)c1c2ccc2c1CCCC2(C)C` [cryptotanshinone], the “intracellular NP level versus control group (10 μmol/L chloroquine)” value [1] was “comparable NP levels with the control group”.

In the case of `COCCn1c2c([n+](Cc3cnccn3)c1C)C(=O)c1ccccc1C2=O` [YM155], the tolerability in humans [2] is listed as “well tolerated”.
